{"source": "patent US12215354B2", "about": "“Differentiation of human embryonic stem cells into single hormonal insulin positive cells” (Janssen Biotech, Inc., priority 2011, dated 2025)", "tested_on": "human embryonic stem cell line H1", "assay": "Immune staining for insulin, glucagon and somatostatin hormones at end of stage 5 (Example 13)", "assay_type": "cell-based", "details": "percentage of the entire hormone count at S5 day 3", "procedure": "Cells of the human embryonic stem cell line H1 at various passages (passage 40 to passage 52) were seeded as single cells at a density of 100,000 cells/cm^2 on MATRIGEL™ (1:30 dilution) coated dishes in mTesr™1 media and 10 μM of Y27632. Forty eight hours post seeding, cultures were differentiated into pancreatic endocrine lineage as follows: • a. Stage 1 (Definitive Endoderm (DE)−3 days): Prior to start of DE, the cultures were washed and incubated with incomplete PBS (no Mg or Ca) for 30 seconds followed by addition of the stage 1 media. Human embryonic stem cells cultured as single cells on MATRIGEL™-coated dishes were treated with MCDB-131 medium supplemented with 0.1% fatty acid-free BSA, 0.0012 g/ml sodium bicarbonate, 1× GLUTAMAX™, 5 mM D-Glucose, 100 ng/ml GDF8, 1 μM MCX compound (GSK3B inhibitor) for one day. Cells were then treated with MCDB-131 medium supplemented with 0.1% fatty acid-free BSA, sodium bicarbonate, GLUTAMAX™, extra 5 mM glucose, 100 ng/ml GDF8, and 100 nM MCX compound for day two followed by an additional day in MCDB-131 medium supplemented with 0.1% fatty acid-free BSA, 0.0012 g/ml sodium bicarbonate, 1× GLUTAMAX™, 5 mM Glucose, and 100 ng/ml GDF8. • b. Stage 2 (Primitive gut tube−2 days): Cells were treated with MCDB-131 medium supplemented with 0.1% fatty acid-free BSA, 0.0012 g/ml sodium bicarbonate, 1× GLUTAMAX™, 5 mM D-Glucose, 0.25 mM ascorbic acid, and 25 ng/ml FGF7 and for two days, then • MCDB131supplemented with 1:200 dilution of ITS-X, 2.5 mM Glucose, 1× GLUTAMAX™, 0.0015 g/ml sodium bicarbonate, 2% fatty acid-free BSA, 10 ng/ml Activin A, 25 ng/ml FGF7, 0.25 mM ascorbic acid, 0.25 μM SANT-1, 1 μM RA, 200 nM TPB, 100 nM LDN-193189 for day 1, followed by treatment with tMCDB131supplemented with 1:200 dilution of ITS-X, 2.5 mM Glucose, 1× GLUTAMAX™, 0.0015 g/ml sodium bicarbonate, 2% fatty acid-free BSA, 10 ng/ml Activin A, 25 ng/ml FGF7, 0.25 mM ascorbic acid, 0.25 μMSANT-1, 1 μM RA, 200 nM TPB, 10 nM LDN-193189 for an additional day. • d. […]", "data": [{"smiles": "O=C1O[C@H]([C@@H](O)CO)C(O)=C1O", "note": "[ascorbic acid]", "values": [{"measurement": "% Polyhormonal", "setting": "treatment at S5", "value": 44, "unit": "%"}, {"measurement": "% glucagon + plus % somatostatin+", "setting": "treatment at S5", "value": 44, "unit": "%"}, {"measurement": "% single hormonal Insulin+", "setting": "treatment at S5 (0.1 mM ascorbic acid, 50 nM RA, 0.25 μM SANT-1, 1 μM Alk5 inh)", "value": 12, "unit": "%"}]}]}
